Experimental data: patent US5457106A, “Pyridine derivatives, their production and use” (Takeda Chemical Industries, Ltd., priority 1991, dated 1995)
Where a name gives a salt, the structure may show the parent alone.

How the values were obtained:
cyclooxygenase = target: T1, cyclooxygenase (Rattus norvegicus, UniProt Q63921); assay: Cyclooxygenase inhibitory activity (HHT formation from arachidonic acid in rat platelet-rich plasma); format: cell-based, rat (Jcl:wistar)
T1 construct: from tissue; host or cells: platelets in platelet-rich plasma from rat abdominal aorta blood (Jcl:wistar, male)
T1 sequence (Q63921 27-602): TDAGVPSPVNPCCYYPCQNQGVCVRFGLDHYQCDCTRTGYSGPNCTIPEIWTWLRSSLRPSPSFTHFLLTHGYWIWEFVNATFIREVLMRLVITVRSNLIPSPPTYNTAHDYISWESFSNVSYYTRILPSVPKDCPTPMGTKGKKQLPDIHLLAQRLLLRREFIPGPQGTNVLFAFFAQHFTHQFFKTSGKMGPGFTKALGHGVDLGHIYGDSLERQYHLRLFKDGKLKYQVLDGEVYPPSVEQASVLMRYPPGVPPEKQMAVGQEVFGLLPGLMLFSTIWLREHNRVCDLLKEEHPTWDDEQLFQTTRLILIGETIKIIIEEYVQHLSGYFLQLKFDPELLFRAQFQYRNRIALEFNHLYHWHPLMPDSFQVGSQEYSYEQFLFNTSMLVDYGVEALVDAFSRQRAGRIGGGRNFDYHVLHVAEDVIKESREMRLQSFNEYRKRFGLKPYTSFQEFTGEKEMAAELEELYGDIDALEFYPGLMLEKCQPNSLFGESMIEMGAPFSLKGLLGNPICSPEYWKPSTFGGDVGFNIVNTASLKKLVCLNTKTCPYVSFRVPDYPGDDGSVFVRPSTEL

[1] = system: Mouse phenylquinone writhing; assay: Mouse phenylquinone writhing inhibitory activity; format: in vivo, mouse (Slc: ICR); details: 50 mg/kg, orally; for inhibition in vivo at 50 mg/kg: Mus musculus, po, 20 min, read-out: Inhibitory percentage (phenylquinone writhing)
Procedure: Mouse Phenylquinone Writhing Inhibitory Activity A Slc: ICR male mouse (4 weeks, weight 17 to 24 g) was used. A test compound suspended in 5% gum arabic solution was administered orally. After 30 minutes, 0.1 ml/10 g body weight of 0.02% phenylquinone solution in water (dissolved by the aid of 5% ethanol) was injected intraperitoneally, and writhing and stretching responses of individual animals were measured for 20 minutes [Siegmund, E., Cadmus, R. and Lu, G.; Proc. Soc. exp. Biol. Med. 95, (1957)].

[2] = system: ART (antigen-responding T-cell); assay: In vitro ART (antigen-responding T-cell) proliferation test; format: cell-based, Lewis rat; details: for inhibition at 1 µM / inhibition at 10 µM: Rattus norvegicus, T-cell, read-out: % Inhibition of ART growth

O=C(NCCSc1ccncc1)c1ccccc1O [Example 168, 4-[2-(2-hydroxybenzoyl)aminoethylthio]pyridine]
IC50 (cyclooxygenase): 3.6 µM

O=C(NCCCSc1cccnc1)c1cccs1 [Example 48, 3-[3-(thenoylamino)propylthio]pyridine]
inhibition in vivo at 50 mg/kg [1]: 31%

CCCCCC(=O)NCCCSc1ccncc1 [Example 15, 4-[3-(hexanoylamino)propylthio]pyridine]
IC50 (cyclooxygenase): 5.1 µM

Cc1ccsc1C(=O)NCCCSc1ccncc1 [Example 60, 4-[3-(3-methylthenoylamino)propylthio]pyridine]
IC50 (cyclooxygenase): 4.2 µM
inhibition in vivo at 50 mg/kg [1]: 41%

O=C(NCCCSc1ccncc1)c1ccccc1O [Example 36, 4-[3-(salicyloylamino)propylthio]pyridine hydrochloride]
IC50 (cyclooxygenase): 6 µM

CC(=O)N(CCCSc1ccncc1)Cc1ccccc1 [Example 75, 4-[3-(N-benzyl-N-acetylamino)propylthio]pyridine]
inhibition at 1 µM ([2]; 1 μM): 5%
inhibition at 10 µM ([2]; 10 μM): 45%
inhibition in vivo at 50 mg/kg [1]: 54%

O=C(NCCCOc1ccncc1)c1cccnc1 [Example 87, 4-(3-nicotinoylaminopropyloxy)pyridine]
inhibition in vivo at 50 mg/kg [1]: 47%

O=C(NCCCOc1ccccn1)c1cccs1 [Example 61, 2-[3-(2-thenoylamino)propyloxy]pyridine]
IC50 (cyclooxygenase): 11 µM

O=C1[C@H]2CC=CC[C@H]2C(=O)N1CSc1ccncc1 [Example 96, 4-[cis-(1,2,3,6-tetrahydrophthalimido)methylthio]pyridine]
IC50 (cyclooxygenase): 13 µM

Cn1cccc1C(=O)NCCCSc1ccncc1 [Example 45, 4-[3-(1-methyl-2-pyrrolecarbonylamino)propylthio]pyridine]
IC50 (cyclooxygenase): 6.6 µM

CCCCCCCCCC(=O)NCCCCCSc1ccncc1 [Example 9]
IC50 (cyclooxygenase): 2.2 µM

CCCCCCCC(=O)NCCCSc1ccncc1 [Example 16]
IC50 (cyclooxygenase): 12.9 µM

CCCC(=O)NCCCSc1ccncc1 [Example 14, 4-[3-(butyrylamino)propylthio]pyridine]
IC50 (cyclooxygenase): 13.2 µM

CC(C)(C)C(=O)Nc1ncccc1SCN1C(=O)c2ccccc2C1=O [Example 74, 3-(phthalimidomethylthio)-2-pivaloylaminopyridine]
inhibition at 1 µM ([2]; 1 μM): -3%
inhibition at 10 µM ([2]; 10 μM): 52%
inhibition in vivo at 50 mg/kg [1]: 51%

Cl.Cl.O=C(c1ccccc1)N(CCCSc1ccncc1)Cc1ccccn1 [Example 82, 4-[3-(N-2-pyridylmethyl-N-benzoylamino)propylthio]pyridine dihydrochloride]
Inhibitory percentage (phenylquinone writhing) [1]: 47%

O=C1c2ccccc2C(O)N1CCCOc1ccncc1 (centres unmarked) [Example 99, 4-[3-(3-hydroxyisoindolin-1-on-2-yl)propyloxy]pyridine]
IC50 (cyclooxygenase): 12 µM

O=C1SC(=Cc2ccccc2)C(=O)N1CCCCSc1ccccn1 [Example 164, 2-[4-(5-benzylidene-2,4-thiazolidinedione)butylthio]pyridine]
inhibition at 1 µM ([2]; 1 μM): 3%
inhibition at 10 µM ([2]; 10 μM): -54%

O=C(/C=C/c1cnc2ccccc2c1)NCCCSc1ccncc1 [Example 44, 4-[3-(3-quinolineacryloylamino)propylthio]pyridine]
IC50 (cyclooxygenase): 3.3 µM

CCCCCCCCCC(=O)NCCCCSc1ccncc1 [Example 8]
IC50 (cyclooxygenase): 1.1 µM

O=C1CSC(=O)N1CCCCSc1ccncc1 [Example 160, 4-[4-(2,4-thiazolidinedione)butylthio]pyridine]
inhibition at 1 µM ([2]; 1 μM): -14%
inhibition at 10 µM ([2]; 10 μM): 33%

O=C(N(CCSc1ccncc1)Cc1ccccc1)C(F)(F)F [Example 119, 4-[2-(N-benzyl-N-trifluoroacetylamino)ethylthio]pyridine]
IC50 (cyclooxygenase): 4.6 µM
inhibition at 1 µM ([2]; 1 μM): 13%
inhibition at 10 µM ([2]; 10 μM): 43%

CC(=O)N(CCCSc1ccncc1)Cc1cccs1.Cl [Example 91, 4-[3-(N-(2-thienylmethyl)-N-acetylamino)-propylthio]pyridine hydrochloride]
% Inhibition of ART growth ([2]; 1 μM): 44%
% Inhibition of ART growth ([2]; 10 μM): 42%
Inhibitory percentage (phenylquinone writhing) [1]: 52%

O=C(NCCCSc1ccncc1)c1cccc2ccccc12 [Example 27, 4-[3-(1-naphthoylamino)propylthio]pyridine hydrochloride]
IC50 (cyclooxygenase): 5.4 µM

O=C(NCCCSc1ccncc1)C1CCCCC1 [Example 23, 4-[3-(cyclohexanoylamino)propylthio]pyridine hydrochloride]
inhibition in vivo at 50 mg/kg [1]: 58%
